{
  "source": "patent EP4459287A1",
  "about": "“METHODS AND TOOLS FOR DETECTING THE IMPACT OF COMPOUNDS ON PROTEIN, RNA OR DNA INTERACTIONS” (Synsight \"Génopole Entreprises\", priority 2023, dated 2024)",
  "key": {"TDP-43": {"test_system": "TDP-43", "experiment": "Four TDP-43 tests (stress granule enrichment, subcellular localization, CFTR alternative splicing, G146A aggregation)", "format": "cell-based", "source_text": "The 13 selected compounds have then been tested in the three cellular tests, i.e. enrichment of wt TDP-43 in stress granules and their subcellular localization in presence of the compounds to be tested, and the effects of the compounds to be tested on the alternative splicing of the cystic fibrosis transmembrane conductance regulator (CFTR) gene by wt TDP-43. Finally, the effects of the 13 compounds on the aggregation of the G146A mutant of TDP-43 has been tested."}, "[1]": {"settings": "cellular data, Vu et al., 2013; read-out: IC50 MTT assay; cited from earlier work"}, "p53/MDM2 interaction": {"target": "T1, p53/MDM2 interaction (Homo sapiens, UniProt Q00987)", "T1 construct": "Human p53 and MDM2 full length cDNA were amplified by PCR; expressed in transfected cells; host or cells: U-2 OS (human osteosarcoma)", "T1 sequence (Q00987 whole entry)": "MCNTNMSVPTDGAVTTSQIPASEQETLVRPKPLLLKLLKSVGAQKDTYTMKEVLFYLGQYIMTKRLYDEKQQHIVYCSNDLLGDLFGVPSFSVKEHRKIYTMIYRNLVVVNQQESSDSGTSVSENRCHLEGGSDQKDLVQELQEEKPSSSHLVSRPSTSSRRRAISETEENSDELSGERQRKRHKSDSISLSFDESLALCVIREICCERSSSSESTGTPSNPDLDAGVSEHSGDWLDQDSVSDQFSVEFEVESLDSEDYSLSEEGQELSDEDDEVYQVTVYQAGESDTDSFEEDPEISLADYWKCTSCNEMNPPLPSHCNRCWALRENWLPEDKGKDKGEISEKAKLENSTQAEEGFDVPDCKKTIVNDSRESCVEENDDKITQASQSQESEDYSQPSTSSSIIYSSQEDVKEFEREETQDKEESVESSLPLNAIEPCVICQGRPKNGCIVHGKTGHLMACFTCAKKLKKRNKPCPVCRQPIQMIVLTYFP", "experiment": "MT bench cell-based assay of p53/MDM2 interaction on HCS (PCC co-localization score)", "settings": "for inhibition of the p53/MDM2 interaction: U-2 OS cells", "experimental": "The MT bench was done using Human Osteosarcoma (U-2 OS) cell line which is the reference for cellular imagery. U-2 OS cells were cultured at 37°C in a humidified atmosphere with 5% CO2 in Dulbecco's modified Eagle's medium (DMEM, Life Technologies) supplemented with 10% FBS (Fetal Bovine Serum, Life Technologies) and 1% penicillin/streptomycin.\nThe generation of the cellular plate (seeding, transfection, treatment) was done automatically using the liquid handler BRAVO from Agilent equipped with a 96-LT (Large Tips) head. U-2 OS cells were seeded on black 96-well plates cell carrier ultra (PerkinElmer) at a density of 18.000 cells per well and after 24h incubation in a humidified incubator at 37°C with 5% CO2 were co-transfected with 12µg human p53-FL(SEQ ID N°15)_C_RFP- MBD and 03µg human MDM2-FL(SEQ ID N°21)_C_GFP plasmids for the positive control (untreated condition) or 12µg human p53-F19AW23AL26A(SEQ ID N°20)_C_RFP-MBD and 0.3µg human MDM2-FL(SEQ ID N°21)_C_GFP plasmids corresponding to the negative control (non-interacting condition / treated condition) using 0.5µg Lipofectamine 2000 (Invitrogen) in optiMEM for 18h.\nAfter 18h of transfection, cells were fixed with ice-cold methanol 100% for 10min at -20°C, washed with PBS and then further fixed with 4% Para FormAldehyde (PFA) in PBS freshly prepared for 10min at RT. […] After washing with PBS, cell nuclei were stained with DAPI (0.1µg/mL) for 5min at RT and samples kept into PBS for fluorescence microscopy imaging. The cellular fluorescent signal was acquired on HCS imaging system Opera Phenix from PerkinElmer, using a 40X water immersion 1.1NA objective and with Harmony® software.\nAfter image acquisition, successive building blocks from Harmony® software was used for image segmentation (find nuclei, find cytoplasm, and select population through threshold on GFP and RFP maximum and mean intensities, as well as cell area). Both images were then filtered using SER Ridge filters to highlight microtubule structures in the cytoplasm.\nThe PCC is a well-established correlation score to measure co-localization and calculated as follows [formula] where Ri and Gi are the pixel intensity values and Rav and Gav are the means of red and green channel, respectively. The values are range between +1 (perfect correlation) to -1 (perfect inverse correlation), with 0 being the absence of co-localization. Thus, the PCC values reflect the co-localization between bait and prey proteins into cytoplasm, translating the interaction on the microtubule network.\nThis normalization was done by extrapolating the PCC values relatively to the controls, by using the mean of negative control wells and the mean of positive control wells."}, "MDM2-FL_C_GFP (human)": {"target": "MDM2-FL_C_GFP (human) (UniProt Q00987)", "sequence (Q00987 whole entry)": "as above", "experiment": "MT bench normalized PCC score, fixed U-2 OS cells"}},
  "data": [
    {"compound": "Nc1ncnc2c1c(I)cn2[C@@H]1O[C@H](CO)[C@@H](O)[C@H]1O", "note": "[5-iodotubercidin]", "values": [
      {"measurement": "effect in the four tests", "setting": "TDP-43", "value": "showed an effect on at least two of the four tests"}
    ]},
    {"compound": "O=C1C(=O)c2ccccc2-c2ccccc21", "note": "[9,10-Phenanthrenequinone]", "values": [
      {"measurement": "effect in the four tests", "setting": "TDP-43", "value": "showed an effect on at least two of the four tests"}
    ]},
    {"compound": "O=C1Nc2ccc3ncsc3c2C1=Cc1cnc[nH]1", "note": "[PKRi]", "values": [
      {"measurement": "effect in the four tests", "setting": "TDP-43", "value": "showed an effect on at least two of the four tests"}
    ]},
    {"compound": "CCOc1cc(C(C)(C)C)ccc1C1=N[C@@](C)(c2ccc(Cl)cc2)[C@@](C)(c2ccc(Cl)cc2)N1C(=O)N1CCN(CCCS(C)(=O)=O)CC1", "note": "[RG7112]", "values": [
      {"measurement": "IC50", "setting": "[1]", "value": 400, "unit": "nM"},
      {"measurement": "inhibition of the p53/MDM2 interaction", "setting": "p53/MDM2 interaction; 0.05µM (low concentration)", "value": "weak inhibition of the interaction"},
      {"measurement": "inhibition of the p53/MDM2 interaction", "setting": "p53/MDM2 interaction; 0.5µM (medium concentration)", "value": "moderate inhibition of the interaction"},
      {"measurement": "inhibition of the p53/MDM2 interaction", "setting": "p53/MDM2 interaction; 5µM (high concentration)", "value": "strong inhibition of the interaction"},
      {"measurement": "inhibition of the p53/MDM2 interaction", "setting": "p53/MDM2 interaction; 50µM (high concentration)", "value": "strong inhibition of the interaction"},
      {"measurement": "disruption of p53/MDM2 interaction and re-localization of MDM2 in the nucleus", "setting": "p53/MDM2 interaction; increasing concentrations 0.05µM, 0.5µM, 5µM, 50µM, fixed U-2 OS cells", "value": "dose-dependent manner"}
    ]},
    {"compound": "p53-F19A_C_RFP-MBD", "values": [
      {"measurement": "percent of the interaction abrogated (against wild-type p53)", "setting": "MDM2-FL_C_GFP (human)", "value": "> 90", "unit": "%"}
    ]}
  ]
}
